In patent US11566028B2, “Bicyclic heterocycles as FGFR inhibitors” (Incyte Corporation, priority 2019, dated 2023):
Like-named read-outs stand apart in the source and are kept apart here.

Legend:
Type in all cases: biochemical
[1] = target: wild-type un-phosphorylated FGFR3 protein (Homo sapiens (Human), UniProt P22607); assay: FGFR Enzymatic Assay (FRET peptide phosphorylation), FGFR3; conditions: pre-incubated for 4 hours
FGFR1 = FGFR1 (Homo sapiens (Human), UniProt P11362); assay: FGFR Enzymatic Assay (FRET peptide phosphorylation), FGFR1; conditions: pre-incubated for 4 hours
FGFR2 = FGFR2 (Homo sapiens (Human), UniProt P21802); assay: FGFR Enzymatic Assay (FRET peptide phosphorylation), FGFR2
FGFR4 = FGFR4 (Homo sapiens (Human), UniProt P22455); assay: FGFR Enzymatic Assay (FRET peptide phosphorylation), FGFR4
FGFR4, sequence (P22455 22-802): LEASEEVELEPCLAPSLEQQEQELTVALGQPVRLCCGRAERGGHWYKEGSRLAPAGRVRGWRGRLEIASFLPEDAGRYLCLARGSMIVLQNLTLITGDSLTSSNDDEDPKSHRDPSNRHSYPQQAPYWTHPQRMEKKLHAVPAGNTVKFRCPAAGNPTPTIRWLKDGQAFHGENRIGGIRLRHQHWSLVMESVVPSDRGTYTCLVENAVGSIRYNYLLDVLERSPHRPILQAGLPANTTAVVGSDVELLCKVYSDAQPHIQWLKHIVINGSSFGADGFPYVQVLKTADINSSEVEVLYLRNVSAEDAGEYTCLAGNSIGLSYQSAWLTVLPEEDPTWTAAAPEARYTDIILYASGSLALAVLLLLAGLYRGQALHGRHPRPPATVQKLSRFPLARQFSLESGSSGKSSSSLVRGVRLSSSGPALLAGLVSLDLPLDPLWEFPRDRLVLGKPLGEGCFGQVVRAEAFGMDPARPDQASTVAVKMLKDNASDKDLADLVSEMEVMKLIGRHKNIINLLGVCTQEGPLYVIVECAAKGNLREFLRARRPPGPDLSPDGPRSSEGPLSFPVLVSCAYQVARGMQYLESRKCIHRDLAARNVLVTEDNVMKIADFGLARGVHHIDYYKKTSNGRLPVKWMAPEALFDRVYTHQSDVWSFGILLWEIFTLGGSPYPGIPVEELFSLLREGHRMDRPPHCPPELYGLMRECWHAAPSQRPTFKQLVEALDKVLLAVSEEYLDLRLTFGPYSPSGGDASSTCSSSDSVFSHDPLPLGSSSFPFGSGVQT

wild-type un-phosphorylated FGFR3 protein, sequence (P22607 23-806): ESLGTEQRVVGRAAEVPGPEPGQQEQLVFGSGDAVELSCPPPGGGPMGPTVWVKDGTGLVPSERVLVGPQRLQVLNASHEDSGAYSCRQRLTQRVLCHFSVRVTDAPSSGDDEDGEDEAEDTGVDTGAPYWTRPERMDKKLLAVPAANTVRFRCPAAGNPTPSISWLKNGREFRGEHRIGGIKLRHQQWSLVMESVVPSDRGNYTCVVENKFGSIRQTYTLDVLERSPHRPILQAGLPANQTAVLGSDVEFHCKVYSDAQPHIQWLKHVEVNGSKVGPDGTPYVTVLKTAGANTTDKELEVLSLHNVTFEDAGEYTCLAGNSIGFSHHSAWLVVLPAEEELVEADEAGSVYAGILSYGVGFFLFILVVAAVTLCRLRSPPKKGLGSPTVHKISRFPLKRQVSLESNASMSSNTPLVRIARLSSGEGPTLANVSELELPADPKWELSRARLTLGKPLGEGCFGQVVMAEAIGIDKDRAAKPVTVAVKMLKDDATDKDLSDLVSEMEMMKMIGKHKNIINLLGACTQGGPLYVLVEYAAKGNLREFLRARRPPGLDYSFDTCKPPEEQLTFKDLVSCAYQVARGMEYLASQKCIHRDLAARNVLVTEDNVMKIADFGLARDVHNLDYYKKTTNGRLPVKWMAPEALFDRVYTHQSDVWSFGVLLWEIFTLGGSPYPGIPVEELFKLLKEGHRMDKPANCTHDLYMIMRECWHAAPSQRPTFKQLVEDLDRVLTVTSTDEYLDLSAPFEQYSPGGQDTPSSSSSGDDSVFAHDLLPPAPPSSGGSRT
FGFR1, sequence (P11362 22-822): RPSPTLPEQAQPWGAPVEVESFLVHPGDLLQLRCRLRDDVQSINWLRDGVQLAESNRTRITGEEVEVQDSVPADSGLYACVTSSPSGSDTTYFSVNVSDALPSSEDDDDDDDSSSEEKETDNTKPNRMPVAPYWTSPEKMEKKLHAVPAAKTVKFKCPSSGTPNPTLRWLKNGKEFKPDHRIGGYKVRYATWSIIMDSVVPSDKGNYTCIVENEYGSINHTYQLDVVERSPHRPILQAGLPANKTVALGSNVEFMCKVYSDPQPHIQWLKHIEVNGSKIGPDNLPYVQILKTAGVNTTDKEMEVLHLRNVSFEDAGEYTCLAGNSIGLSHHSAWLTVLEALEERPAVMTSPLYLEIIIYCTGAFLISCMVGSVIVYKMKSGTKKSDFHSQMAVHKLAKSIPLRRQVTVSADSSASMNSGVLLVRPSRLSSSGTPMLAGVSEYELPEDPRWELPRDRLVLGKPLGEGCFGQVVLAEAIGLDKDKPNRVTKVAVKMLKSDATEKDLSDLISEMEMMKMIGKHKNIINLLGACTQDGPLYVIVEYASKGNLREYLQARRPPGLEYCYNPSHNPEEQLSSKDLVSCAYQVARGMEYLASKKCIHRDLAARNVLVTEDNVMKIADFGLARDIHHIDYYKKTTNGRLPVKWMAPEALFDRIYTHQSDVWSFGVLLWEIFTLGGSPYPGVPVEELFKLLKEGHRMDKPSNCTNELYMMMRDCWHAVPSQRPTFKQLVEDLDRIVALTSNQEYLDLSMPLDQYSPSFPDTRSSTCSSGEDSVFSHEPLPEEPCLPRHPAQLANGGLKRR
FGFR2, sequence (P21802 22-821): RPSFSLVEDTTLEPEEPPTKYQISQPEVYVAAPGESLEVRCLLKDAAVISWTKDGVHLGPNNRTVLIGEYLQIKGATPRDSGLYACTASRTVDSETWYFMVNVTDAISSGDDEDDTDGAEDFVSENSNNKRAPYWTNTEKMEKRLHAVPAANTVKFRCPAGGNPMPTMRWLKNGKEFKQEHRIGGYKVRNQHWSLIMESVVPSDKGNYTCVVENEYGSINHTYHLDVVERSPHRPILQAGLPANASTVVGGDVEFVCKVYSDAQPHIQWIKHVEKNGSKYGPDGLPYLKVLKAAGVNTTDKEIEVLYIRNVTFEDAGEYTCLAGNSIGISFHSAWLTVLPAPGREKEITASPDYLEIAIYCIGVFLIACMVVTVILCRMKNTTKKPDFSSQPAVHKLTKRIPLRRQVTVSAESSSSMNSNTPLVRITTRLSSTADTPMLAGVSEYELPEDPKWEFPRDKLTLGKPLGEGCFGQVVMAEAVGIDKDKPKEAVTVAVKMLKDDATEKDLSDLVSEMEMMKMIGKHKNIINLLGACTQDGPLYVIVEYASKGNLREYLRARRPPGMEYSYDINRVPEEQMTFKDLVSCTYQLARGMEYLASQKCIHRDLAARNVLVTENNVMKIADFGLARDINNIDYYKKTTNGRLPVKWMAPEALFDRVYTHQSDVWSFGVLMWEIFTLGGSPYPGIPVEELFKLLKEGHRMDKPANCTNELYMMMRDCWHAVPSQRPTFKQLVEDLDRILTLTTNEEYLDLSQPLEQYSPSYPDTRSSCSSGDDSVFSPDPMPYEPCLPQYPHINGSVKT

SMILES	IC50 [1] [nM]	IC50 (FGFR1) [nM]	IC50 (FGFR2) [nM]	IC50 (FGFR4) [nM]	IC50 (FGFR2; pre-incubated for 4 hours) [nM]	IC50 (FGFR4; pre-incubated for 4 hours) [nM]
CCn1cc(-c2cn3ncc(-c4cc(C(=O)NC)cc(F)c4F)c3nc2N[C@H]2CCOC2)cn1 [Example 53, (S)-3-(6-(1-Ethy1-1H-pyrazol-4-y1)-5-((tetrahydrofuran-3-yl)amino)pyrazolo[1,5-a]pyrimidin-3-y1)-4,5-difluoro-N-methylbenzamide]	< 10	10 to 30	< 10	> 200		
CNC(=O)c1cc(F)c(F)c(-c2cnn3cc(-c4cnn(CCN5CCOCC5)c4)c(N[C@H]4CCOC4)nc23)c1 [Example 55, (S)-3,4-Difluoro-N-methy1-5-(6-(1-(2-morpholinoethyl)-1H-pyrazol-4-y1)-5-((tetrahydrofuran-3-yl)amino)pyrazolo[1,5-a]pyrimidin-3-yl)benzamide]	< 10	< 10	< 10	30 to 200		
CNC(=O)c1cc(F)c(F)c(-c2cnn3cc(-c4cnc(C)o4)c(N[C@H]4CCOC4)nc23)c1 [Example 58, (S)-3,4-Difluoro-N-methyl-5-(6-(2-methyloxazol-5-y1)-5-((tetrahydrofuran-3-yl)amino)pyrazolo[1,5-a]pyrimidin-3-yl)benzamide]	< 10	< 10	< 10	30 to 200		
CNC(=O)c1cncc(-c2cnn3cc(-c4ccn(C)n4)c(N[C@H]4CCOC4)nc23)c1 [Example 59, (S)—N-Methyl-5-(6-(1-methyl-1H-pyrazol-3-yl)-5-((tetrahydrofuran-3-yl)amino)pyrazolo[1,5-a]pyrimidin-3-yl)nicotinamide]	< 10	< 10			< 10	10 to 30
CNC(=O)c1cncc(-c2cnn3cc(-c4cnn(C)n4)c(N[C@H]4CCOC4)nc23)c1 [Example 60, (S)—N-Methyl-5-(6-(2-methyl-2H-1,2,3-triazol-4-yl)-5-((tetrahydrofuran-3-yl)amino)pyrazolo[1,5-a]pyrimidin-3-yl)nicotinamide]	< 10	30 to 200			< 10	≥ 200
CCNC(=O)c1cncc(-c2cnn3cc(-c4ccn(C)n4)c(N[C@H]4CCOC4)nc23)c1 [Example 61, (S)—N-Ethyl-5-(6-(1-methyl-1H-pyrazol-3-yl)-5-((tetrahydrofuran-3-yl)amino)pyrazolo[1,5-a]pyrimidin-3-yl)nicotinamide]	< 10	30 to 200			< 10	30 to 200
CC(C)NC(=O)c1cncc(-c2cnn3cc(-c4ccn(C)n4)c(N[C@H]4CCOC4)nc23)c1 [Example 62, (S)—N-Isopropyl-5-(6-(1-methyl-1H-pyrazol-3-yl)-5-((tetrahydrofuran-3-yl)amino)pyrazolo[1,5-a]pyrimidin-3-yl)nicotinamide]		30 to 200			10 to 30	≥ 200
[2H]C([2H])([2H])NC(=O)c1cncc(-c2cnn3cc(-c4cnn(C(C)C)c4)c(O[C@H]4CCOC4)nc23)c1 [Example 63, (S)-5-(6-(1-Isopropyl-1H-pyrazol-4-yl)-5-((tetrahydrofuran-3-yl)oxy)pyrazolo[1,5-a]pyrimidin-3-yl)-N-(methyl-d3)nicotinamide]						30 to 200
[2H]C([2H])([2H])NC(=O)c1cc(C)c(F)c(-c2cnn3cc(-c4cnn([C@@H]5CCN(C)C[C@H]5F)c4)c(O[C@H]4CCOC4)nc23)c1 [Example 64, 4-Fluoro-3-(6-(1-((3R,4R)-3-fluoro-1-methylpiperidin-4-yl)-1H-pyrazol-4-yl)-5-(((S)-tetrahydrofuran-3-yl)oxy)pyrazolo[1,5-a]pyrimidin-3-yl)-5-methyl-N-(methyl-d3)benzamide]	< 10	< 10			< 10	10 to 30
[2H]C([2H])([2H])NC(=O)c1cc(C)c(F)c(-c2cnn3cc(-c4cnc(C5CCN(C(C)C)CC5)o4)c(N[C@H]4CCOC4)nc23)c1 [Example 68, (S)-4-Fluoro-3-(6-(2-(1-isopropylpiperidin-4-yl)oxazol-5-yl)-5-((tetrahydrofuran-3-yl)amino)pyrazolo[1,5-a]pyrimidin-3-yl)-5-methyl-N-(methyl-d3)benzamide]	< 10	30 to 200			< 10	
CNC(=O)c1cc(C)c(F)c(-c2cnn3cc(-c4cnc(C5(F)CCN(C)CC5)o4)c(N[C@H]4CCOC4)nc23)c1 [Example 69, (S)-4-Fluoro-3-(6-(2-(4-fluoro-1-methylpiperidin-4-yl)oxazol-5-yl)-5-((tetrahydrofuran-3-yl)amino)pyrazolo[1,5-a]pyrimidin-3-yl)-N,5-dimethylbenzamide]	< 10	30 to 200			< 10	
CNC(=O)c1cc(C)c(F)c(-c2cnn3cc(-c4cnc(N5CCN(C)CC5)o4)c(N[C@H]4CCOC4)nc23)c1 [Example 70, (S)-4-Fluoro-N,3-dimethyl-5-(6-(2-(4-methylpiperazin-1-yl)oxazol-5-yl)-5-((tetrahydrofuran-3-yl)amino)pyrazolo[1,5-a]pyrimidin-3-yl)benzamide]	< 10	30 to 200			< 10	
